From ChEMBL document CHEMBL5674860, “Optimized Dual-Glo Assay to identify co-culture-induced drug vulnerabilities in 3D CRC models” (2024)
Square brackets hold non-standard residues; d marks the D form. Peptide text beside a SMILES is read from it. Arg(Me) = CNC(=N)NCCC[C@H](N)C(=O)O; d4Pal = N[C@H](Cc1ccncc1)C(=O)O; azaGly = NNC(=O)O

How the values were obtained:
Format in all cases: functional, Homo sapiens
Set-up in all cases: dose or concentration left out as unconfirmed
[1] = system: Colon cancer organoid; assay: Optimized Dual-Glo assay to identify co-culture induced drug vulnerabilities using donated chemical probes and chemogenomics kinase set in O20 CRC organoid and F20 CAF mono and co-culture. […] Cell viability is reported both mono and co-culture models.
[2] = system: Colon cancer organoid; assay: Optimized Dual-Glo assay to identify co-culture induced drug vulnerabilities using donated chemical probes and chemogenomics kinase set in O06 CRC organoid and F06 CAF mono and co-culture. […] Cell viability is reported both mono and co-culture models.
[3] = system: Colon cancer organoid; assay: Optimized Dual-Glo assay to identify co-culture induced drug vulnerabilities using donated chemical probes and chemogenomics kinase set in O14 CRC organoid and F14 CAF mono and co-culture. […] Cell viability is reported both mono and co-culture models.
[4] = Culture type Co-Culture, Transduced with Lucferase2-P2A-EGFP lentivirus
[5] = Culture type Co-Culture, Transduced with Renilla-dsRed lentivirus
[6] = Culture type Mono-Culture, Transduced with Lucferase2-P2A-EGFP lentivirus
[7] = Culture type Mono-Culture, Transduced with Renilla-dsRed lentivirus

CNC(=O)c1ccc(Nc2ncc(C(F)(F)F)c(NCc3nccnc3N(C)S(C)(=O)=O)n2)cc1 [DEFACTINIB]
Cell Viability [1, 4]: 57.0475%
Cell Viability [1, 5]: 79.7534%
Cell Viability [1, 6]: 66.5234%
Cell Viability [1, 7]: 63.7293%
Cell Viability [2, 4]: 127.858%
Cell Viability [2, 5]: 116.047%
Cell Viability [2, 6]: 102.967%
Cell Viability [2, 7]: 60.766%
Cell Viability [3, 4]: 83.442%
Cell Viability [3, 5]: 104.135%
Cell Viability [3, 6]: 42.8527%
Cell Viability [3, 7]: 104.257%

COc1cc(Nc2ccnc3ccc(Br)cc23)cc(OC)c1OC
Cell Viability [1, 4]: 3.207%
Cell Viability [1, 5]: 235.19%
Cell Viability [1, 6]: 3.534%
Cell Viability [1, 7]: 97.9085%
Cell Viability [2, 4]: 12.1878%
Cell Viability [2, 5]: 144.697%
Cell Viability [2, 6]: 4.043%
Cell Viability [2, 7]: 101.861%
Cell Viability [3, 4]: 114.11%
Cell Viability [3, 5]: 94.8334%
Cell Viability [3, 6]: 91.9496%
Cell Viability [3, 7]: 94.0266%

COc1cc(N(C)c2ccnc3ccc(C(F)(F)F)cc23)cc(OC)c1OC
Cell Viability [1, 4]: 76.7382%
Cell Viability [1, 5]: 110.267%
Cell Viability [1, 6]: 123.073%
Cell Viability [1, 7]: 118.477%
Cell Viability [2, 4]: 161.309%
Cell Viability [2, 5]: 161.036%
Cell Viability [2, 6]: 102.201%
Cell Viability [2, 7]: 116.943%
Cell Viability [3, 4]: 114.205%
Cell Viability [3, 5]: 95.5273%
Cell Viability [3, 6]: 120.439%
Cell Viability [3, 7]: 84.9016%

COc1ccc(CCc2nc3cc(-c4c(C)noc4C)ccc3n2C[C@H](C)N2CCOCC2)cc1Cl
Cell Viability [1, 4]: 95.7417%
Cell Viability [1, 5]: 133.846%
Cell Viability [1, 6]: 83.4803%
Cell Viability [1, 7]: 106.755%
Cell Viability [2, 4]: 78.634%
Cell Viability [2, 5]: 97.126%
Cell Viability [2, 6]: 66.152%
Cell Viability [2, 7]: 156.889%
Cell Viability [3, 4]: 90.4848%
Cell Viability [3, 5]: 144.282%
Cell Viability [3, 6]: 124.855%
Cell Viability [3, 7]: 138.359%

CN(C)C(=O)c1cc2cnc(Nc3ccc(N4CCNCC4)cn3)nc2n1C1CCCC1 [RIBOCICLIB]
Cell Viability [1, 4]: 36.9577%
Cell Viability [1, 5]: 144.514%
Cell Viability [1, 6]: 20.5669%
Cell Viability [1, 7]: 95.5583%
Cell Viability [2, 4]: 54.2961%
Cell Viability [2, 5]: 126.231%
Cell Viability [2, 6]: 30.4641%
Cell Viability [2, 7]: 111.56%
Cell Viability [3, 4]: 59.6816%
Cell Viability [3, 5]: 144.098%
Cell Viability [3, 6]: 62.61%
Cell Viability [3, 7]: 96.4403%

COCCc1ccc(-c2c(C)nc3c(N4CCOCC4)ccnn23)cn1 [JNJ-42396302]
Cell Viability [1, 4]: 126.017%
Cell Viability [1, 5]: 102.271%
Cell Viability [1, 6]: 117.378%
Cell Viability [1, 7]: 103.223%
Cell Viability [2, 4]: 95.3565%
Cell Viability [2, 5]: 88.7666%
Cell Viability [2, 6]: 124.422%
Cell Viability [2, 7]: 103.43%
Cell Viability [3, 4]: 101.077%
Cell Viability [3, 5]: 99.3561%
Cell Viability [3, 6]: 103.596%
Cell Viability [3, 7]: 90.5469%

Cc1ccc2nc(NCCN)c3ncc(C)n3c2c1.O=C(O)C(F)(F)F.O=C(O)C(F)(F)F
Cell Viability [1, 4]: 230.973%
Cell Viability [1, 5]: 67.6056%
Cell Viability [1, 6]: 101.148%
Cell Viability [1, 7]: 93.4293%
Cell Viability [2, 4]: 94.0156%
Cell Viability [2, 5]: 112.188%
Cell Viability [2, 6]: 113.649%
Cell Viability [2, 7]: 154.019%
Cell Viability [3, 4]: 82.3615%
Cell Viability [3, 5]: 114.809%
Cell Viability [3, 6]: 73.2048%
Cell Viability [3, 7]: 109.465%

O=C1[C@H](Cc2ccc(O)cc2)N2C(=O)CCN(C(=O)NCc3ccccc3)[C@H]2CN1Cc1cccc2ccccc12
Cell Viability [1, 4]: 89.6614%
Cell Viability [1, 5]: 144.616%
Cell Viability [1, 6]: 131.376%
Cell Viability [1, 7]: 33.7268%
Cell Viability [2, 4]: 79.2211%
Cell Viability [2, 5]: 124.216%
Cell Viability [2, 6]: 100.059%
Cell Viability [2, 7]: 61.7438%
Cell Viability [3, 4]: 20.45%
Cell Viability [3, 5]: 145.967%
Cell Viability [3, 6]: 17.2238%
Cell Viability [3, 7]: 77.2237%

CCN(CC)S(=O)(=O)Nc1cccc(-c2ccc3c(NC(=O)C4CC4)n[nH]c3c2)c1
Cell Viability [1, 4]: 76.1767%
Cell Viability [1, 5]: 136.148%
Cell Viability [1, 6]: 110.502%
Cell Viability [1, 7]: 120.639%
Cell Viability [2, 4]: 95.7035%
Cell Viability [2, 5]: 91.2372%
Cell Viability [2, 6]: 90.915%
Cell Viability [2, 7]: 111.432%
Cell Viability [3, 4]: 132.967%
Cell Viability [3, 5]: 105.386%
Cell Viability [3, 6]: 144.3%
Cell Viability [3, 7]: 103.503%

Cn1c(-c2csc(C3CCN(CC4=NC5N=CC=CC5N4)CC3)n2)nc2ccccc21 (stereo unspecified) [BAY-070]
Cell Viability [1, 4]: 41.8948%
Cell Viability [1, 5]: 84.0468%
Cell Viability [1, 6]: 78.1822%
Cell Viability [1, 7]: 83.7423%
Cell Viability [2, 4]: 29.934%
Cell Viability [2, 5]: 49.5381%
Cell Viability [2, 6]: 49.5158%
Cell Viability [2, 7]: 105.274%
Cell Viability [3, 4]: 71.6704%
Cell Viability [3, 5]: 82.4795%
Cell Viability [3, 6]: 106.637%
Cell Viability [3, 7]: 95.1305%

CNC(=N)NCCC[C@H](NC(=O)[C@H](CC(C)C)NC(=O)NNC(=O)[C@H](Cc1ccccc1)NC(=O)[C@H](CO)NC(=O)[C@H](CC(N)=O)NC(=O)[C@@H](Cc1ccncc1)NC(=O)[C@H](N)Cc1ccc(O)cc1)C(=O)N[C@@H](Cc1ccccc1)C(N)=O [KISS1-305] (H-[dY][d4Pal]NSF[azaGly]L[Arg(Me)]F-NH2)
Cell Viability [1, 4]: 118.72%
Cell Viability [1, 5]: 125.679%
Cell Viability [1, 6]: 103.004%
Cell Viability [1, 7]: 99.3377%
Cell Viability [2, 4]: 104.031%
Cell Viability [2, 5]: 118.904%
Cell Viability [2, 6]: 114.891%
Cell Viability [2, 7]: 119.718%
Cell Viability [3, 4]: 143.349%
Cell Viability [3, 5]: 104.877%
Cell Viability [3, 6]: 85.2761%
Cell Viability [3, 7]: 111.321%

COc1cc(Nc2nccc(-c3cnn4nc(OC)ccc34)n2)cc(C(F)(F)F)c1
Cell Viability [1, 4]: 11.0854%
Cell Viability [1, 5]: 189.711%
Cell Viability [1, 6]: 12.7509%
Cell Viability [1, 7]: 71.1906%
Cell Viability [2, 4]: 25.4978%
Cell Viability [2, 5]: 199.418%
Cell Viability [2, 6]: 18.9413%
Cell Viability [2, 7]: 49.3331%
Cell Viability [3, 4]: 8.865%
Cell Viability [3, 5]: 107.014%
Cell Viability [3, 6]: 18.5626%
Cell Viability [3, 7]: 63.2458%

OCCn1cc(-c2cnc3nnn(Cc4ccc5ncccc5c4)c3n2)cn1 [PF-04217903]
Cell Viability [1, 4]: 121.611%
Cell Viability [1, 5]: 97.2338%
Cell Viability [1, 6]: 113.154%
Cell Viability [1, 7]: 101.829%
Cell Viability [2, 4]: 88.0795%
Cell Viability [2, 5]: 107.387%
Cell Viability [2, 6]: 104.073%
Cell Viability [2, 7]: 94.3108%
Cell Viability [3, 4]: 71.8183%
Cell Viability [3, 5]: 123.95%
Cell Viability [3, 6]: 91.8486%
Cell Viability [3, 7]: 91.0833%

CCc1cc(Nc2nccc(-c3c(-c4ccc(OC)c(C(=O)Nc5c(F)cccc5F)c4)nc4ccccn34)n2)c(OC)cc1N1CCC(N2CCN(S(C)(=O)=O)CC2)CC1
Cell Viability [1, 4]: 116.043%
Cell Viability [1, 5]: 82.2783%
Cell Viability [1, 6]: 81.9449%
Cell Viability [1, 7]: 100.572%
Cell Viability [2, 4]: 86.7992%
Cell Viability [2, 5]: 78.7013%
Cell Viability [2, 6]: 91.9397%
Cell Viability [2, 7]: 111.569%
Cell Viability [3, 4]: 94.7667%
Cell Viability [3, 5]: 100.13%
Cell Viability [3, 6]: 92.2589%
Cell Viability [3, 7]: 95.6551%

CCS(=O)(=O)c1cc2cc(C[C@](O)(CC(C)(C)c3ccc(F)cc3C(N)=O)C(F)(F)F)[nH]c2cn1 [BI 653048]
Cell Viability [1, 4]: 85.6205%
Cell Viability [1, 5]: 287.465%
Cell Viability [1, 6]: 124.389%
Cell Viability [1, 7]: 135.577%
Cell Viability [2, 4]: 136.436%
Cell Viability [2, 5]: 297.33%
Cell Viability [2, 6]: 97.0766%
Cell Viability [2, 7]: 179.661%
Cell Viability [3, 4]: 98.1614%
Cell Viability [3, 5]: 169.499%
Cell Viability [3, 6]: 94.8893%
Cell Viability [3, 7]: 163.254%

CC1(C)C(N)=Nc2cc(OCCCN3Cc4ccc(OCCc5cn(CC(=O)N6CCC(CCN7CCCC7)CC6)nn5)cc4C3)c(OCC3CC3)cc21
Cell Viability [1, 4]: 94.7334%
Cell Viability [1, 5]: 161.052%
Cell Viability [1, 6]: 109.897%
Cell Viability [1, 7]: 111.947%
Cell Viability [2, 4]: 85.8179%
Cell Viability [2, 5]: 109.54%
Cell Viability [2, 6]: 61.6099%
Cell Viability [2, 7]: 146.021%
Cell Viability [3, 4]: 83.4014%
Cell Viability [3, 5]: 129.005%
Cell Viability [3, 6]: 107.567%
Cell Viability [3, 7]: 119.85%

O=C(NNS(=O)(=O)c1ccccc1F)c1cc(F)cc(-c2ccccn2)c1 [WM-1119]
Cell Viability [1, 4]: 68.3772%
Cell Viability [1, 5]: 152.012%
Cell Viability [1, 6]: 102.739%
Cell Viability [1, 7]: 96.1932%
Cell Viability [2, 4]: 97.0333%
Cell Viability [2, 5]: 108.11%
Cell Viability [2, 6]: 61.3742%
Cell Viability [2, 7]: 91.757%
Cell Viability [3, 4]: 33.671%
Cell Viability [3, 5]: 171.323%
Cell Viability [3, 6]: 39.6176%
Cell Viability [3, 7]: 103.912%

CC(C)[C@H](C(=O)Nc1ccc(C(=O)NO)cc1)c1ccccc1 [AR-42]
Cell Viability [1, 4]: 13.9159%
Cell Viability [1, 5]: 352.85%
Cell Viability [1, 6]: 21.6913%
Cell Viability [1, 7]: 192.04%
Cell Viability [2, 4]: 8.004%
Cell Viability [2, 5]: 640.047%
Cell Viability [2, 6]: 17.2646%
Cell Viability [2, 7]: 486.211%
Cell Viability [3, 4]: 19.466%
Cell Viability [3, 5]: 585.967%
Cell Viability [3, 6]: 17.1608%
Cell Viability [3, 7]: 305.591%
